Laboratory results taken from US7695923B2, “CFTR polypeptides methods to overcome biosynthetic misprocessing” (Mayo Foundation for Medical Education and Research, priority 1999, dated 2010).
“Also recorded” adds a separate entry of the source.

What was measured:
[1] = test system: BHK cells; assay: cAMP stimulated 36Cl- efflux from CFTR expressing cells; format: cell-based, Baby hamster; details: stimulation with IBMX, Forskolin, dibutyryl cyclic AMP
Procedure: Wild-type and ΔF508 CFTR expressing cells with each of the individual R[…]K substitutions, or all four lysine substitutions were grown to confluence in six well culture dishes. The cells were washed with a modified Ringer's buffer solution (136 mM NaNO3, 3 mM KNO3, 2 mM Ca(NO3)2, 2 mM Mg(NO3)2, 10 mM glucose and 20 mM HEPES, pH 7.4) and loaded for 60 min at room temperature with the same buffer supplemented with 1 μCi Na^36Cl (Amersham) in a volume of 0.5 ml per well. Wells were then washed three times at one min intervals. Samples (0.5 ml) were then collected at 1 minute intervals for scintillation counting with stimulation occurring at time 0 by adding buffer containing 1 mM IBMX, 10 μM Forskolin and 100 μM dibutyryl cyclic AMP. The 0.5 ml samples were collected into 24 well Top Count plates (Packard) and 1 ml of Microcint 40 scintillation cocktail (Packard) was added. ^36Cl^− radioactivity was determined in a Packard Top Count scintillation counter.

[2] = test system: BHK cells; assay: Indirect immunofluorescence localization of CFTR with M3A7; format: cell-based, Baby hamster; details: M3A7 staining, permeabilized cells
Procedure: Immunofluorescence microscopy in cells expressing ΔF508 CFTR was performed using the highly specific monoclonal antibody, M3A7 (Kartner et al., 1992, supra). Briefly, transformed cells were grown on coverslips, fixed in 70% cold methanol at −20° C. for 10 minutes, blocked using 1% BSA and 5% normal rabbit serum in PBS and were permeabilized by incubating in PBS+0.1% saponin for 1 h at 4° C. CFTR was detected by incubation with 10 μg/ml of M3A7 primary antibody for 60 min at room temperature. Rhodamine linked rabbit anti-mouse secondary antibody (DAKO) was diluted 1:50 in the same blocking solution for a further 1 h incubation. Photomicrographs were made using a Diagnostic Instruments Spot Cam digital camera on a Nikon Microphot-FXA microscope.

[3] = test system: BHK cells; assay: 35S-methionine pulse chase of CFTR maturation; format: cell-based, Baby hamster; details: for radioactivity of pulse-labeled immature band present in mature band (conversion of precursor to product): after 4 h of chase, electronic autoradiography; for maturation at the end of the pulse: end of the pulse (0 min); for conversion of precursor to mature endoH resistant form during chase: pulse chase
Procedure: Pulse chase studies were performed to determine the rate at which maturation occurred in the arginine-framed triplet substituted wild-type and ΔF508 CFTR polypeptides (FIG. 2). […] Cells were lysed at the end of the labeling period (0 chase time) or were further incubated in complete medium containing 5% fetal bovine serum and 1 mM methionine for the indicated times (chase). Cells were collected and lysed with the NP40 lysis buffer described above and centrifuged at 15,000×g for 15 min at 4° C. to obtain a soluble supernatant which was incubated overnight with the M3A7 primary antibody. Protein G-agarose (Gibco-BRL) was then used to remove the complexes formed which were washed four times with RIPA buffer, dissolved in electrophoresis sample buffer, and subsequently fractionated on SDS-7% acrylamide gels. Following fractionation, the gels were fixed in 30% methanol and 10% acetic acid, equilibrated in 1M sodium salicylate and dried for fluorography. Electronic autoradiography was performed with a Packard Instant Imager. […]

[4] = test system: CFTR chloride channels; assay: Single CFTR Cl- channel recording in planar lipid bilayers; format: biochemical, human; details: for Conductance: 300 mM Tris-HCl; for Conductance / Long mean closed time τc2 / Mean open time τ0 / Short mean closed time τc1: -75 mV, 2 mM MgATP; for open probability: 25° C.
Procedure: (§1) To further characterize the Cl^− channel activity, membrane vesicles were isolated from cells expressing wild-type, wild-type/4RK and ΔF508/4RK CFTR, fused with planar lipid bilayers and single channels were recorded (Aleksandrov, A. A., and Riordan, J. R. (1998) FEBS Lett. 431:97-101). Vesicles were prepared and phosphorylated with PKA as described previously (Aleksandrov and Riordan, 1998, supra). Briefly, planar lipid bilayers were painted onto a 0.2 mm hole drilled in a Teflon cup using a phospholipid solution in n-decane containing a 2:1 mixture of 1-palmitoyl-2-oleoyl-sn-glycero-3-phosphoethanolamine and 1-palmitoyl-2-oleoyl-sn-glycero-3-phosphoserine (20 mg/ml). The lipid bilayer separated 1.0 ml of solution in the Teflon cup (cis-side) from 4.0 ml of solution in an outer glass chamber (trans-side). Both chambers were magnetically stirred and thermostated. Heating and temperature control were established using a Temperature Control System TC2BIP (Cell MicroControls). Electrical contact with the solutions was provided by Ag/AgCl electrodes through agar bridges filled with 0.5 M KCl. The membrane potential difference was measured as the difference between trans and cis side potentials. The trans side was grounded and electrical measurements of the single channel current were performed under voltage clamp conditions using an Axopatch 200B (Axon Instruments) amplifier. The output signal was filtered with an 8-pole low pass Bessel Filter LPBF-48DG (NPI Electronic GmbH) with cut off frequency of 50 Hz and recorded on magnetic tape using a VR-10B (Instrutech Corp.) digital data recorded on a Sony SLV-440 VCR. For data analysis, the signal was digitized (Digidata 1200; Axon Instruments) with a sampling rate of 500 Hz and analyzed using pCLAMP 6.0 (Axon Instruments) software. Origin 4.0 (Microcal) software was used to fit all points histograms by multi-peak Gaussians. Membrane vesicles were prephosphorylated with PKA and added as a concentrated stock solution to the cis side to obtain a final protein concentration of 10-15 μg/ml. Measurements were made in symmetrical salts solutions containing, in mM: 300 Tris-HCl, 2 MgCl, 1 EGTA, pH=7.2, at a membrane potential of −75 mV. MgATP (2 mM) was added to the cis side only. Under these conditions any cationic channels present in the membrane vesicles are invisible and CFTR chloride channels appeared only after fusion of vesicles with an inside out orientation. Conductances for wild-type, wild-type/4RK and ΔF508/4RK were 10.7, 10.8, and 10.7 pS, respectively. Mean open times τ0 were 230, 1400, and 700 msec respectively. Short mean closed times τc1 were 10 msec in each case. Long mean closed times τc2 were 680, 2000, and 2800 msec, respectively. Conductance as a function of Cl^− concentration and temperature as well as anion selectivity of the CFTR ion channel were tested in control experiments showing good agreement with published data (Tabcharani, J. A et al. (1997) J. Gen. Physiol. 110:341-54).

[5] = molecular target: T1, CFTR chloride channels (Homo sapiens, UniProt P13569, DEL508-508/V470M); assay: as above; format: biochemical; details: vesicles from BHK cells
T1 construct: These five fragments were ligated together to generate full length CFTR cDNA in pNUT; expressed in transfected cells; host or cells: BHK (baby hamster kidney) cells, stably transfected with pNUT-CFTR constructs; membrane vesicles fused with planar lipid bilayers
Procedure: as §1

[6] = test system: BHK cells; assay: Western blot of BHK cell extracts with M3A7 antibody, with endoglycosidase H digestion; format: cell-based, Baby hamster; details: ΔF508 CFTR background; for mature bands of lower mobility on Western blot: steady state, BHK cell extracts
Procedure: Baby hamster kidney cells (BHK) cells grown at 37° C. in 5% CO2 were employed as hosts for CFTR expression as described previously (Loo et al. (1998) EMBO J. 17:6879-6887; and Seibert, F. S et al. (1995) J. Biol. Chem. 270:2158-2162). Subconfluent BHK cells were transformed with the above wild-type or ΔF508 CFTR constructs using calcium phosphate precipitation (Chen, C., and Okayama, H. (1987) Mol. Cell. Biol. 7: 2745-2752). After growth in selective media containing 500 μM methotrexate, individual colonies were picked and amplified in the same selective media.
BHK cells were grown, collected and then lysed with 1% SDS; the DNA was sheared by cycling through a 22 gauge needle. Protein lysate (20 μg) from the sample were then subjected to SDS-PAGE on 7% polyacrylamide gels. Protein was electroblotted from the gel to nitrocellulose membrane and the membrane was probed with a mouse anti-CFTR monoclonal antibody, M3A7 (Kartner, N. et al. (1992) Nat. Genetics 1:321-7). Chemiluminescent detection was performed according to the manufacturer's recommendations (Pierce).
For endoglycosidase H treatment, cell lysates were diluted with 10 volumes of buffer (50 mM sodium acetate, pH 5.3, 0.5% Nonidet P-40, 1% β-mercaptoethanol plus a protease inhibitor mixture: 2 μg/ml aprotinin, 120 μg/ml benzamidine, […], 1 μg/ml leupepetin and 50 μg/ml pefabloc). This yielded a final SDS concentration of 0.1%. Samples were then incubated for 4 hr at 37° C. with 10 mU of endoglycosidase H (Boehringer Mannheim). The reactions were stopped by addition of 4 volumes of cold ethanol (−20° C.) to precipitate the proteins. Precipitated proteins were then resuspended in gel loading dye and subjected to SDS-PAGE and immunoblotting as above.

[7] = test system: BHK cells; assay: Cell surface biotinylation of CFTR on intact cell monolayers; format: cell-based, Baby hamster
Procedure: For cell surface biotinylation studies, cells grown to about 90% confluency were treated with 2 mM sodium butyrate for 18 h to augment CFTR expression. Dishes of cells were then placed on ice in a cold room for 30 minutes and all subsequent steps were performed. Cells washed with PBS containing 0.1 mM CaCl2 and 1.0 mM MgCl2, were labeled using 3 ml of 1 mg/ml EZ-Link Sulfo-NHS-SS-biotin (Pierce) in PBS, pH 8.0 for 30 minutes. Following washes in PBS+1% BSA and PBS, cells were incubated for 30 minutes in NP40 lysis buffer (0.09% NP40, 150 mM NaCl, 10 mM NH4MoO4, 50 mM Tris-HCl, pH 7.4), scraped and transferred to microfuge tubes. Insoluble materials were removed by centrifugation. Biotinylated proteins were then precipitated by incubation overnight with 50 μl of packed immobilized streptavidin beads (Pierce). Beads were washed with RIPA buffer (0.1% SDS, 1% DOC, 1% Triton X-100, 150 mM NaCl, 50 mM Tris-Hcl, pH 7.4) and proteins eluted with gel sample buffer for electrophoresis and Western blotting with M3A7 as detailed above.

T1 sequence (P13569 with tags, fused parts or gaps V470M/DEL508-508): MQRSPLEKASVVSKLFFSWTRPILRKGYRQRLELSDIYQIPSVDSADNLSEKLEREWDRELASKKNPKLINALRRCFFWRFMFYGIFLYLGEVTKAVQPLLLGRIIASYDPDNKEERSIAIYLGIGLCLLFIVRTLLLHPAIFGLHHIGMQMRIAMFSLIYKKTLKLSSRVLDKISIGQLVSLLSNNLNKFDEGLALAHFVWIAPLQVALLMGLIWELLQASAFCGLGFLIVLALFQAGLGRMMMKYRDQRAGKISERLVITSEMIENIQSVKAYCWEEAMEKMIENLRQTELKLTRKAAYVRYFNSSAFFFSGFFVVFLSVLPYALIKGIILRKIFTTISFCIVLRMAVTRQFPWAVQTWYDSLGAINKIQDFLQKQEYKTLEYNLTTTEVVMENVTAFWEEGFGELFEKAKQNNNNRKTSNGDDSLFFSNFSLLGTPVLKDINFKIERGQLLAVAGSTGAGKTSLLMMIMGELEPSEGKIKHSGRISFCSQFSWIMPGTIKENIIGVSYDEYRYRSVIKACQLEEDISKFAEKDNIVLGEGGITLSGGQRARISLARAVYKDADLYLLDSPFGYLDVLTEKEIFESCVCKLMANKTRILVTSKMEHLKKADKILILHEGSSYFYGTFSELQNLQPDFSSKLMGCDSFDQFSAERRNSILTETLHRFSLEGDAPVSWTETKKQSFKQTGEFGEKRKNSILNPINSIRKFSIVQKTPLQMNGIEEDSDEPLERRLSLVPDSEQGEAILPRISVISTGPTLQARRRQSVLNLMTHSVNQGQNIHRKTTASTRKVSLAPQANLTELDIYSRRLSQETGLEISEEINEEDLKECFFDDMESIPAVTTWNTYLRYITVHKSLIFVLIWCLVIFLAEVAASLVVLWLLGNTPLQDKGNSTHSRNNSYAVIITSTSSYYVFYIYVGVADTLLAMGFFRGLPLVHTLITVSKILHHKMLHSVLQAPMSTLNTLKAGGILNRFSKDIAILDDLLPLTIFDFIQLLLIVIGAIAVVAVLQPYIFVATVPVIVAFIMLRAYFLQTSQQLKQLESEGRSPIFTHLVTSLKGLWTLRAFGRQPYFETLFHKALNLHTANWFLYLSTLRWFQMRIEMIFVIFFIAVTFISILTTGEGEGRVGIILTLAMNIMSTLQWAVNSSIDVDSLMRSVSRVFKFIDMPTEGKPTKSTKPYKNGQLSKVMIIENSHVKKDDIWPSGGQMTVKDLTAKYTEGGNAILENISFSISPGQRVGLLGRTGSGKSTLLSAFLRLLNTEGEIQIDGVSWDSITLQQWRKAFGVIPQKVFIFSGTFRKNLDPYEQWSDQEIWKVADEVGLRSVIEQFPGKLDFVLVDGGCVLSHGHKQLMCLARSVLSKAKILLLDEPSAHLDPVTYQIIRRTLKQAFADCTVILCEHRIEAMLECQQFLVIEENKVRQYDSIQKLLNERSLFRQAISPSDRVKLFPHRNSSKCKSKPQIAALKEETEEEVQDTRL

Row | Substance | cAMP stimulated 36Cl- efflux rate [1] | CFTR localization by immunofluorescence [2] | conversion of precursor to mature endoH resistant form during chase [3] | Conductance [4] | Long mean closed time τc2 [4] | Mean open time τ0 [4] | Short mean closed time τc1 [4] | further results
1 | R766K: ΔF508 CFTR in which arginine 766 has been substituted with lysine | No detectable increase in efflux rate | – | – | – | – | – | – | –
2 | wild-type CFTR: full-length human CFTR expressed from pNUT vector in BHK cells [reference compound] | – | strong uniform staining of mature CFTR over the entire cell surface | begins within an hour | 10.7 pS | 680 ms | 230 ms | 10 ms | radioactivity of pulse-labeled immature band present in mature band (conversion of precursor to product) [3]: ~30%; maturation at the end of the pulse [3]: no maturation; open probability [4]: ~0.25
3 | ΔF508 CFTR: export-incompetent cystic fibrosis causing CFTR mutant lacking phenylalanine 508 | No detectable increase in efflux rate | Perinuclear staining only | no conversion; also recorded: fails to mature even after two hours | – | – | – | – | detection of CFTR-like single channels [5]: never been able to detect CFTR-like single channels
4 | wild-type/4RK: wild-type CFTR in which four arginines (R29K, R516K, R555K, R766K) have been substituted with lysine | – | – | more rapid maturation | 10.8 pS | 2000 ms | 1400 ms | 10 ms | maturation at the end of the pulse [3]: already evident; open probability [4]: ~0.61
5 | R516K: ΔF508 CFTR in which arginine 516 has been substituted with lysine | No detectable increase in efflux rate | – | – | – | – | – | – | –
6 | R555K: ΔF508 CFTR in which arginine 555 has been substituted with lysine | No detectable increase in efflux rate | – | – | – | – | – | – | –
7 | ΔF508/R29K: ΔF508 CFTR in which arginine 29 has been substituted with lysine | low rates of ^36Cl^− efflux occurred at delayed times after stimulation | – | – | – | – | – | – | endoglycosidase H sensitivity of the large bands [6]: Endoglycosidase-H insensitivity; mature bands of lower mobility on Western blot [6]: bands of lower mobility are produced
8 | ΔF508/4RK: ΔF508 CFTR having all four arginines (29, 516, 555, 766) substituted with lysine | more than half as rapid as those from cells expressing wild-type CFTR | extension of the staining more peripherally | readily apparent | 10.7 pS | 2800 ms | 700 ms | 10 ms | accessibility of mature band to surface biotinylation [7]: accessible to the impermeant amino reactive biotinylation reagent; radioactivity of pulse-labeled immature band present in mature band (conversion of precursor to product) [3]: approximately 10%; endoglycosidase H sensitivity of the large bands [6]: Endoglycosidase-H insensitivity; mature bands of lower mobility on Western blot [6]: bands of lower mobility are produced
